From patent US11685716B2, “Plant growth inhibiting agent, and plant growth inhibiting method using same” (NATIONAL UNIVERSITY CORPORATION KUMAMOTO UNIVERSITY, priority 2017, dated 2023)

Key:
[1] = test system: purple amaranth; assay: Spray treatment to stems and leaves, killing weed index (Evaluation 10); type: in vivo; settings: 2000 g active ingredient per hectare, two weeks later
Procedure: (§1) POA allyl phenyl ether (4.1 parts by weight), POE-POP glycol (1 part by weight), POE sorbitan laurate (0.8 parts by weight), glycerin (2.6 parts by weight), dimethylformamide (65.9 parts by weight), N-methylpyrrolidone (5.1 parts by weight), cyclohexanone (15.4 parts by weight), and aromatic hydrocarbon (5.1 parts by weight) were mixed and dissolved to prepare an emulsion. The compounds of the present invention (4 mg) were dissolved in this emulsion (100 μL) to prepare a test emulsion. In addition, POA means “polyoxyalkylene”, POE means “polyoxyethylene”, and POP means “polyoxypropylene.”
(§2) Four hundred μL of the above test emulsion was diluted with 7600 μL of water to use as a test spray liquid.
(§3) Further, 400 μL of the above test emulsion was diluted with 1600 μL of a 1% Tween20 aqueous solution to use as a spray liquid for a small amount spray test.
(§4) For a comparative spray liquid, 53 μL of a 30% pendimethalin emulsion (Gogosan emulsion: manufactured by BASF Japan) as a control pesticides was diluted with 7947 μL of water. Further, for a comparative spray liquid for a small amount spray test, 53 μL of the 30% pendimethalin emulsion was diluted with 1947 μL of water.
(§5) A 150 cm^2 pot was filled with a soil, seeds of each purple amaranth, Japanese bristlegrass, southern crabgrass, and velvet leaf were sown on the surface layer, lightly covered with a soil and grown in a greenhouse. When each plant grew to a plant height of 2 to 9 cm, the test spray liquid was sprayed to the stem and leaf parts with a small spraying machine such that an active ingredient amount was 2000 g per hectare and a sprayed liquid amount was 1000 L per hectare.
(§6) Similarly, the test spray liquid for a small amount spray test was sprayed to the stem and leaf parts with a small spraying machine such that an active ingredient amount was 2000 g per hectare and a sprayed liquid amount was 250 L per hectare.
(§7) Two weeks later, the above-ground grass weight in non-treated areas and the above-ground grass weight in treated areas, by the weed, were measured to calculate a killing weed rate by the following calculating formula.
(§8) (a) Calculating Formula of Weeding Rate Killing weed rate (%)=(above-ground grass weight in non-treated area−above-ground grass weight in treated area)/(above-ground grass weight in non-treated area)×100 (b) Killing Weed Indexes
(§9) The obtained killing weed rates were evaluated, such that a killing weed index was “10” when a killing weed rate is 100%, as “9” when a killing weed rate is 99% to 90%, “8” when a killing weed rate is 89% to 80%, “7” when a killing weed rate is 79% to 70%, “6” when a killing weed rate is 69% to 60%, “5” when a killing weed rate is 59% to 50%, “4” when a killing weed rate is 49% to 40%, “3” when a killing weed rate is 39% to 30%, “2” when a killing weed rate is 29% to 20%, “1” when a killing weed rate is 19% to 10%, and “0” when a killing weed rate is 9% to 0%.

[2] = test system: Japanese bristlegrass; assay: as above; type: in vivo; settings: 2000 g active ingredient per hectare, two weeks later
Procedure: as §1, §2, §3, §4, §5, §6, §7, §8, §9

[3] = test system: southern crabgrass; assay: as above; type: in vivo; settings: 2000 g active ingredient per hectare, two weeks later
Procedure: as §1, §2, §3, §4, §5, §6, §7, §8, §9

[4] = test system: velvet leaf; assay: as above; type: in vivo; settings: 2000 g active ingredient per hectare, two weeks later
Procedure: as §1, §2, §3, §4, §5, §6, §7, §8, §9

[5] = test system: thale cress; assay: Plant growth inhibition index, thale cress on agar medium in test tube (Evaluation 8, 9); type: in vivo, thale cress (Col-0, wild-type strain); parameters: key: 0: No effect; 1: Growth of the root part was inhibited 50% or less compared with non-treated area.; 2: Growth of the root part was inhibited 50% or more compared with non-treated area.; 3: Growth of the root part was substantially inhibited.; 4: Germination was inhibited; settings: for Index: Concentration 200 μM, 8 days (Evaluation 9, Table 2)
Procedure: 0.44% (w/v) Mixed salts for Murashige and Skoog medium (SIGMA), 1% (w/v) sucrose, and 0.05% (w/v) MES were mixed, and pH of the solution was adjusted to pH 5.7 with potassium hydroxide. 1.5% (w/v) Agar was added to the mixture, which was sterilized at 120° C. in an autoclave for 20 minutes. The test compound and dimethylformamide containing 1.5% of polyoxyethylenesorbitan monolaurate for a control experiment, were added at this stage and blended. In addition, the compound was used by adjusting an addition concentration to 200 μM. Four ml each of the medium was dispensed in sterile glass test tube ([…] RIKA GLASS CO., LTD.) to prepare agar medium.
As a plant material, Col-0, which is a wild-type strain of thale cress, was used.
Seeds, after their surfaces were sterilized, were planted on the agar medium, and the growth of the plant was carried out in a plant incubator (CFH-405) under the conditions of an illuminance of 3 at 23° C. with constant light. The plants on the agar medium were grown for 8 days in the chamber.
The plant growth inhibition effect of the compounds was evaluated by conversion to indexes according to the following investigation criteria.

[6] = test system: Japanese millet; assay: Seed treatment, plant growth inhibition index (Evaluation 11); type: in vivo; parameters: key: 0: No effect; 1: Growth of the root part was inhibited 50% or less compared with non-treated area.; 2: Growth of the root part was inhibited 50% or more compared with non-treated area.; 3: Growth of the root part was substantially inhibited.; 4: Germination was inhibited
Procedure: (§10) The compound of the present invention (2 mg) was dissolved in a 1.5% Tween dimethylformamide solution (100 μL) to use as a test chemical solution.
(§11) Eight mL of sterilized water was poured to a cherry cup (100Φ×45 mm) lined with a filter paper, subsequently 81.1 μL of the sterilized water was removed, and 81.1 μL of the test chemical solution was added such that a final concentration of the compound was 800 μM.
(§12) Further, cherry cups were similarly prepared such that a final concentration of the compound was 200 μM.
(§13) Seeds (Japanese millet: 3 grains, velvet leaf: 6 grains, Ragweed: 8 grains, morning glory: 2 grains) were planted on the filter paper in the cherry cups, followed by growing the plants in a thermostatic chamber at 25° C. under a light-dark cycle in which a light period is 12 hours and a dark period is 12 hours for 6 days.
(§14) In addition, with regards to the compound (9a) and the compound (9b), the plants were tested for 7 days.
(§15) Plant growth inhibition effects of the compounds were evaluated by conversion to indexes according to the following investigation criteria.

[7] = test system: Ragweed; assay: as above; type: in vivo; parameters: key: 0: No effect; 1: Growth of the root part was inhibited 50% or less compared with non-treated area.; 2: Growth of the root part was inhibited 50% or more compared with non-treated area.; 3: Growth of the root part was substantially inhibited.; 4: Germination was inhibited
Procedure: as §10, §11, §12, §13, §14, §15

[8] = test system: velvet leaf; assay: as above; type: in vivo; parameters: key: 0: No effect; 1: Growth of the root part was inhibited 50% or less compared with non-treated area.; 2: Growth of the root part was inhibited 50% or more compared with non-treated area.; 3: Growth of the root part was substantially inhibited.; 4: Germination was inhibited
Procedure: as §10, §11, §12, §13, §14, §15

[9] = test system: morning glory; assay: as above; type: in vivo; parameters: key: 0: No effect; 1: Growth of the root part was inhibited 50% or less compared with non-treated area.; 2: Growth of the root part was inhibited 50% or more compared with non-treated area.; 3: Growth of the root part was substantially inhibited.; 4: Germination was inhibited
Procedure: as §10, §11, §12, §13, §14, §15

[10] = sprayed liquid amount 1000 L/ha
[11] = 200 μM, 6 days (9a, 9b: 7 days)

Structure (SMILES)	killing weed index, Purple amaranth ([1]; sprayed liquid amount 250 L/ha)	killing weed index, Purple amaranth [1, 10]	killing weed index, Japanese bristlegrass ([2]; sprayed liquid amount 250 L/ha)	killing weed index, Japanese bristlegrass [2, 10]	killing weed index, Southern crabgrass ([3]; sprayed liquid amount 250 L/ha)	killing weed index, Southern crabgrass [3, 10]	killing weed index, Velvet leaf ([4]; sprayed liquid amount 250 L/ha)	killing weed index, Velvet leaf [4, 10]	index on the plant growth inhibition effect ([5]; 200 μM, 8 days (Evaluation 8))	Index [5]	plant growth inhibition index, Japanese millet [6, 11]	plant growth inhibition index, Japanese millet ([6]; 800 μM, 6 days)	plant growth inhibition index, Ragweed [7, 11]	plant growth inhibition index, Ragweed ([7]; 800 μM, 6 days)	plant growth inhibition index, Velvet leaf [8, 11]	plant growth inhibition index, Velvet leaf ([8]; 800 μM, 6 days)	plant growth inhibition index, Morning glory [9, 11]	plant growth inhibition index, Morning glory ([9]; 800 μM, 6 days)
O=C(O)c1cccn1OCCCC(F)(F)F [Compound 8i]	0 (“0” when a killing weed rate is 9% to 0%)	0 (“0” when a killing weed rate is 9% to 0%)	1 (“1” when a killing weed rate is 19% to 10%)	3 (“3” when a killing weed rate is 39% to 30%)	2 (“2” when a killing weed rate is 29% to 20%)	2 (“2” when a killing weed rate is 29% to 20%)	0 (“0” when a killing weed rate is 9% to 0%)	0 (“0” when a killing weed rate is 9% to 0%)	2 (Growth of the root part was inhibited 50% or more compared with non-treated area.)	–	–	–	–	–	–	–	–	–
CCCCCCCCCOn1cc(C)cc1C(=O)O [Compound 9c]	1 (“1” when a killing weed rate is 19% to 10%)	0 (“0” when a killing weed rate is 9% to 0%)	2 (“2” when a killing weed rate is 29% to 20%)	3 (“3” when a killing weed rate is 39% to 30%)	3 (“3” when a killing weed rate is 39% to 30%)	5 (“5” when a killing weed rate is 59% to 50%)	5 (“5” when a killing weed rate is 59% to 50%)	0 (“0” when a killing weed rate is 9% to 0%)	–	3	–	–	–	–	–	–	–	–
CCCCCOn1cc(-c2cccnc2)cc1C(=O)O [Compound 9i]	–	–	–	–	–	–	–	–	–	2 (Growth of the root part was inhibited 50% or more compared with non-treated area.)	3 (Growth of the stem and leave parts was inhibited 30% or more compared with non-treated area, or growth of the only root part was inhibited 60% or more compared with non-treated area.)	4 (Growth of the stem and leave parts was inhibited 40% or more compared with non-treated area, or growth of the only root part was inhibited 80% or more compared with non-treated area.)	0	4 (Growth of the stem and leave parts was inhibited 40% or more compared with non-treated area, or growth of the only root part was inhibited 80% or more compared with non-treated area.)	0	6 (Growth of the stem and leave parts was inhibited 60% or more compared with non-treated area.)	0	10
CCCCCOn1cc(-c2ccsc2)cc1C(=O)O [Compound 9j]	–	–	–	–	–	–	–	–	–	2 (Growth of the root part was inhibited 50% or more compared with non-treated area.)	4 (Growth of the stem and leave parts was inhibited 40% or more compared with non-treated area, or growth of the only root part was inhibited 80% or more compared with non-treated area.)	3 (Growth of the stem and leave parts was inhibited 30% or more compared with non-treated area, or growth of the only root part was inhibited 60% or more compared with non-treated area.)	8 (Growth of the stem and leave parts was inhibited 80% or more compared with non-treated area.)	9 (Growth of the stem and leave parts was inhibited 90% or more compared with non-treated area.)	0	5 (Growth of the stem and leave parts was inhibited 50% or more compared with non-treated area, or growth of the only root part was inhibited 100% or more compared with non-treated area.)	3 (Growth of the stem and leave parts was inhibited 30% or more compared with non-treated area, or growth of the only root part was inhibited 60% or more compared with non-treated area.)	5 (Growth of the stem and leave parts was inhibited 50% or more compared with non-treated area, or growth of the only root part was inhibited 100% or more compared with non-treated area.)
